Laboratory results reported in patent US20250381198A1 (Melt Pharmaceuticals, Inc., priority 2024, published 2025).

Legend:
[1] = system: subjects undergoing cataract extraction with lens replacement (CELR); assay: Phase 2: mean intraoperative analgesia by the numeric pain rating scale; settings: for Intraoperative Numeric Pain Rating Scale, Mean / Intraoperative Numeric Pain Rating Scale, Median: full analysis set
Description: Mean intraoperative analgesia by the numeric pain rating scale (Min=0; Max=9) was assayed for each subject in the full analysis set at intraoperative timepoints: insertion of the speculum; corneal incision; insertion of phacoemulsion probe; insertion of the synthetic replacement lens. An average of the available timepoints was also calculated.

[2] = system: subjects undergoing cataract extraction with lens replacement (CELR); assay: Phase 2: subjects wanting study drug again for a second surgery (11-point Likert scale); type: in vivo, human; settings: for Want Study Drug Again, Mean / Want Study Drug Again, Median: 11-point Likert scale of 0 (not likely at all) to 10 (extremely likely), full analysis set
Text: Post-operation, subjects were asked whether they would want the study drug again for a second surgery using an 11-point Likert scale of 0 (not likely at all) to 10 (extremely likely).

[3] = system: subjects undergoing cataract extraction with lens replacement (CELR); assay: Phase 2: subjects requiring rescue sedative medication; type: in vivo, human; settings: Visit 2 (Day 1); full analysis set
Description: (§1) The number of subjects achieving analgesia response (observed) in the full analysis set was determined. Success in analgesia response was defined as NPRS<4 at the available at the available four intraoperative timepoints and a failure otherwise (e.g., any interoperative pain rescue was assumed to be a failure. Results are provided in TABLE 25. The number of subjects completing the surgery is provided in TABLE 26, and the number of subjects completing the surgery without interruption is provided in TABLE 27. For this measure, subjects completing the surgery without interruption (other than rescue medication) due to pain or anxiety were considered successes. The number of subjects requiring rescue sedative medication and those requiring analgesic medication are provided in TABLES 28 and 29, respectively. For all TABLES 25-29, p-Values between pairs of treatments were calculated and are provided.

[4] = system: subjects undergoing cataract extraction with lens replacement (CELR); assay: Phase 2: subjects completing the surgery (and without interruption); type: in vivo, human; settings: Visit 2 (Day 1); full analysis set
Description: as §1

[5] = system: subjects undergoing cataract extraction with lens replacement (CELR); assay: Phase 2: subjects requiring rescue analgesic medication; type: in vivo, human; settings: Visit 2 (Day 1); full analysis set
Description: as §1

[6] = Average of Available Timepoints, adjusted for site (carry forward)
[7] = Average of Available Timepoints, adjusted for site (carry forward), repeated measures model with covariates for study center
[8] = Average of Available Timepoints, carry forward
[9] = Average of Available Timepoints, carry forward, repeated measures model
[10] = Average of Available Timepoints, observed
[11] = Average of Available Timepoints, observed, repeated measures model
[12] = Corneal incision, adjusted for site (carry forward)
[13] = Corneal incision, carry forward
[14] = Insertion of the phacoemulsion probe, adjusted for site (carry forward)
[15] = Insertion of the phacoemulsion probe, carry forward
[16] = Insertion of the phacoemulsion probe, observed
[17] = Insertion of the speculum, adjusted for site (carry forward)
[18] = Insertion of the speculum, carry forward
[19] = Insertion of the speculum, observed
[20] = Insertion of the synthetic replacement lens, adjusted for site (carry forward)
[21] = Insertion of the synthetic replacement lens, carry forward
[22] = Insertion of the synthetic replacement lens, observed
[23] = adjusted for site (carry forward), repeated measures model with covariates for study center
[24] = carry forward, repeated measures model
[25] = observed, repeated measures model
[26] = 11-point Likert scale, unpaired t-test

## CNC1(c2ccccc2Cl)CCCCC1=O (centres unmarked) [Ketamine 50 mg]
[1]; [6]
  Intraoperative Numeric Pain Rating Scale, Mean: 2.16
  Intraoperative Numeric Pain Rating Scale, Median: 1.75
[1]; [7]
  Intraoperative Numeric Pain Rating Scale, LS Mean: 1.89
[1]; [8]
  Intraoperative Numeric Pain Rating Scale, Mean: 2.16
  Intraoperative Numeric Pain Rating Scale, Median: 1.75
[1]; [9]
  Intraoperative Numeric Pain Rating Scale, LS Mean: 2.16
[1]; [10]
  Intraoperative Numeric Pain Rating Scale, Mean: 2.00
  Intraoperative Numeric Pain Rating Scale, Median: 1.75
[1]; [11]
  Intraoperative Numeric Pain Rating Scale, LS Mean: 2.22
[1]; [12]
  Intraoperative Numeric Pain Rating Scale, Mean: 1.8
  Intraoperative Numeric Pain Rating Scale, Median: 1.0
[1]; [13]
  Intraoperative Numeric Pain Rating Scale, Mean: 1.8
  Intraoperative Numeric Pain Rating Scale, Median: 1.0
[1]; Corneal incision, observed
  Intraoperative Numeric Pain Rating Scale, Mean: 1.7
  Intraoperative Numeric Pain Rating Scale, Median: 1.0
[1]; [14]
  Intraoperative Numeric Pain Rating Scale, Mean: 2.5
  Intraoperative Numeric Pain Rating Scale, Median: 2.0
[1]; [15]
  Intraoperative Numeric Pain Rating Scale, Mean: 2.5
  Intraoperative Numeric Pain Rating Scale, Median: 2.0
[1]; [16]
  Intraoperative Numeric Pain Rating Scale, Mean: 2.1
  Intraoperative Numeric Pain Rating Scale, Median: 2.0
[1]; [17]
  Intraoperative Numeric Pain Rating Scale, Mean: 1.3.
  Intraoperative Numeric Pain Rating Scale, Median: 1.0
[1]; [18]
  Intraoperative Numeric Pain Rating Scale, Mean: 1.1
  Intraoperative Numeric Pain Rating Scale, Median: 1.0
[1]; [19]
  Intraoperative Numeric Pain Rating Scale, Mean: 1.1
  Intraoperative Numeric Pain Rating Scale, Median: 1.0
[1]; [20]
  Intraoperative Numeric Pain Rating Scale, Mean: 3.3
  Intraoperative Numeric Pain Rating Scale, Median: 3.0
[1]; [21]
  Intraoperative Numeric Pain Rating Scale, Mean: 3.3
  Intraoperative Numeric Pain Rating Scale, Median: 3.0
[1]; [22]
  Intraoperative Numeric Pain Rating Scale, Mean: 2.5
  Intraoperative Numeric Pain Rating Scale, Median: 2.0
[1]; [23]
  Numeric Pain Rating Scale, LS Mean Difference Versus Placebo: −0.30
[1]; [24]
  Numeric Pain Rating Scale, LS Mean Difference Versus Placebo: −0.32
[1]; [25]
  Numeric Pain Rating Scale, LS Mean Difference Versus Placebo: −0.26
[2]
  Want Study Drug Again, Mean: 7.6
  Want Study Drug Again, Median: 10.0
[2]; [26]
  Want Study Drug Again, Mean Difference Versus Placebo: −0.05
[3]
  Subjects Requiring Rescue Sedative Medication, Intraoperatively, %: (6.3) %
  Subjects Requiring Rescue Sedative Medication, No, %: (63.3) %
  Subjects Requiring Rescue Sedative Medication, Pre-operatively, %: (30.4) %
  Subjects Requiring Rescue Sedative Medication, Yes, %: (36.7) %
[4]
  Subjects Completing the Surgery without Interruption, No, %: (6.3) %
  Subjects Completing the Surgery without Interruption, Yes, %: (93.7) %
[5]
  Subjects Requiring Rescue Analgesic Medication, No, %: (59.5) %
  Subjects Requiring Rescue Analgesic Medication, Yes, %: (40.5) %

## Cc1ncc2n1-c1ccc(Cl)cc1C(c1ccccc1F)=NC2 [Midazolam 3 mg]
[1]; [6]
  Intraoperative Numeric Pain Rating Scale, Mean: 2.37
  Intraoperative Numeric Pain Rating Scale, Median: 2.00
[1]; [7]
  Intraoperative Numeric Pain Rating Scale, LS Mean: 2.12
[1]; [8]
  Intraoperative Numeric Pain Rating Scale, Mean: 2.37
  Intraoperative Numeric Pain Rating Scale, Median: 2.00
[1]; [9]
  Intraoperative Numeric Pain Rating Scale, LS Mean: 2.37
[1]; [10]
  Intraoperative Numeric Pain Rating Scale, Mean: 2.18
  Intraoperative Numeric Pain Rating Scale, Median: 2.00
[1]; [11]
  Intraoperative Numeric Pain Rating Scale, LS Mean: 2.46
[1]; [12]
  Intraoperative Numeric Pain Rating Scale, Mean: 1.8
  Intraoperative Numeric Pain Rating Scale, Median: 1.0
[1]; [13]
  Intraoperative Numeric Pain Rating Scale, Mean: 1.8
  Intraoperative Numeric Pain Rating Scale, Median: 1.0
[1]; Corneal incision, observed
  Intraoperative Numeric Pain Rating Scale, Mean: 1.8
  Intraoperative Numeric Pain Rating Scale, Median: 1.0
[1]; [14]
  Intraoperative Numeric Pain Rating Scale, Mean: 2.9
  Intraoperative Numeric Pain Rating Scale, Median: 3.0
[1]; [15]
  Intraoperative Numeric Pain Rating Scale, Mean: 2.9
  Intraoperative Numeric Pain Rating Scale, Median: 3.0
[1]; [16]
  Intraoperative Numeric Pain Rating Scale, Mean: 2.5
  Intraoperative Numeric Pain Rating Scale, Median: 2.0
[1]; [17]
  Intraoperative Numeric Pain Rating Scale, Mean: 1.1
  Intraoperative Numeric Pain Rating Scale, Median: 0.0
[1]; [18]
  Intraoperative Numeric Pain Rating Scale, Mean: 1.1
  Intraoperative Numeric Pain Rating Scale, Median: 0.0
[1]; [19]
  Intraoperative Numeric Pain Rating Scale, Mean: 1.1
  Intraoperative Numeric Pain Rating Scale, Median: 0.0
[1]; [20]
  Intraoperative Numeric Pain Rating Scale, Mean: 3.6
  Intraoperative Numeric Pain Rating Scale, Median: 4.0
[1]; [21]
  Intraoperative Numeric Pain Rating Scale, Mean: 3.6
  Intraoperative Numeric Pain Rating Scale, Median: 4.0
[1]; [22]
  Intraoperative Numeric Pain Rating Scale, Mean: 2.9
  Intraoperative Numeric Pain Rating Scale, Median: 3.0
[1]; [23]
  Numeric Pain Rating Scale, LS Mean Difference Versus Ketamine: 0.22
  Numeric Pain Rating Scale, LS Mean Difference Versus Placebo: −0.08
[1]; [24]
  Numeric Pain Rating Scale, LS Mean Difference Versus Ketamine: 0.20
  Numeric Pain Rating Scale, LS Mean Difference Versus Placebo: −0.12
[1]; [25]
  Numeric Pain Rating Scale, LS Mean Difference Versus Ketamine: 0.24
  Numeric Pain Rating Scale, LS Mean Difference Versus Placebo: −0.01
[2]
  Want Study Drug Again, Mean: 8.4
  Want Study Drug Again, Median: 10.0
[2]; [26]
  Want Study Drug Again, Mean Difference Versus Ketamine: 0.80
  Want Study Drug Again, Mean Difference Versus Placebo: 0.75
[3]
  Subjects Requiring Rescue Sedative Medication, Intraoperatively, %: (8.6) %
  Subjects Requiring Rescue Sedative Medication, No, %: (65.4) %
  Subjects Requiring Rescue Sedative Medication, Pre-operatively, %: (25.9) %
  Subjects Requiring Rescue Sedative Medication, Yes, %: (34.6) %
[4]
  Subjects Completing the Surgery without Interruption, No, %: (0) %
  Subjects Completing the Surgery without Interruption, Yes, %: (100.0) %
[5]
  Subjects Requiring Rescue Analgesic Medication, No, %: (56.8) %
  Subjects Requiring Rescue Analgesic Medication, Yes, %: (43.2) %
